Here are results for five compounds from US9936701B2, “Herbicidal compounds” (Syngenta Participations AG, priority 2013, dated 2018).

The first data set concerns a variety of test species. Briefly: Post-emergence herbicidal activity (glasshouse, sprayed after 8 days cultivation, evaluated after 13 days). The format is in vivo. Also noted: key: 5=total damage to plant; 0=no damage to plant. The following applies: Abutilon theophrasti, rate 1000 g/Ha, scale 0-5. Summed up: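 Visual herbicidal injury (0 = no damage, 5 = plant killed) recorded 13 days post-treatment. Treatment consisted of a single spray onto emerged seedlings at day 8; conditions before and after were 24/16 °C, 14 h light, 65% humidity.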
`CCC(C)(C)c1onc(N2C(=O)C(OC)=C(C)C2O)c1C#N` (centres unmarked) [D5]: the “ABUTH (Abutilon theophrasti) damage score, application post-emergence” value was 5.
Same read-out and setting: next, `CCOC1=C(C)C(O)N(c2cc(C(C)(C)C#N)on2)C1=O` (centres unmarked) [D6]: 5; `COC1=C(C)C(OC(C)=O)N(c2cc(C(C)(C)C)on2)C1=O` (centres unmarked) [D7]: 5.
With `CCOC1=C(C)CN(c2cc(C(C)(C)C#N)on2)C1=O` [D8], the “ABUTH (Abutilon theophrasti) damage score, application post-emergence” value stood at 4.
Same read-out and setting: next, `COC1=C(C)CN(c2noc(C(C)C)c2C#N)C1=O` [D10]: 4.

The same data set, now with this note: Alopecurus myosuroides, rate 1000 g/Ha, scale 0-5.
For the compound `CCC(C)(C)c1onc(N2C(=O)C(OC)=C(C)C2O)c1C#N` (centres unmarked) [D5], the “ALOMY (Alopecurus myosuroides) damage score, application post-emergence” value is listed as 5.
The same measure, in the same setting: the same measure for `CCOC1=C(C)C(O)N(c2cc(C(C)(C)C#N)on2)C1=O` (centres unmarked) [D6]: 4.
Still for that read-out and setting: next, `COC1=C(C)C(OC(C)=O)N(c2cc(C(C)(C)C)on2)C1=O` (centres unmarked) [D7]: 4; `CCOC1=C(C)CN(c2cc(C(C)(C)C#N)on2)C1=O` [D8]: 3.
On the same count and under the same terms, the same measure for `COC1=C(C)CN(c2noc(C(C)C)c2C#N)C1=O` [D10]: 5.

Still in this data set, the particulars now being: Amaranthus retroflexus, rate 1000 g/Ha, scale 0-5.
Regarding `CCC(C)(C)c1onc(N2C(=O)C(OC)=C(C)C2O)c1C#N` (centres unmarked) [D5], the “AMARE (Amaranthus retroflexus) damage score, application post-emergence” value was determined as 5.
The same measure, in the same setting: next, `CCOC1=C(C)C(O)N(c2cc(C(C)(C)C#N)on2)C1=O` (centres unmarked) [D6]: 5; `COC1=C(C)C(OC(C)=O)N(c2cc(C(C)(C)C)on2)C1=O` (centres unmarked) [D7]: 5; `CCOC1=C(C)CN(c2cc(C(C)(C)C#N)on2)C1=O` [D8]: 5.
`COC1=C(C)CN(c2noc(C(C)C)c2C#N)C1=O` [D10]: the “AMARE (Amaranthus retroflexus) damage score, application post-emergence” value was found to be 5.

Staying with this data set, now noted: Echinochloa crus-galli, rate 1000 g/Ha, scale 0-5.
Consider `CCC(C)(C)c1onc(N2C(=O)C(OC)=C(C)C2O)c1C#N` (centres unmarked) [D5], for which the “ECHCG (Echinochloa crus-galli) damage score, application post-emergence” value turned out to be 5.
With `CCOC1=C(C)C(O)N(c2cc(C(C)(C)C#N)on2)C1=O` (centres unmarked) [D6], the “ECHCG (Echinochloa crus-galli) damage score, application post-emergence” value was 5.
On the same count and under the same terms, next, `COC1=C(C)C(OC(C)=O)N(c2cc(C(C)(C)C)on2)C1=O` (centres unmarked) [D7]: 5; `CCOC1=C(C)CN(c2cc(C(C)(C)C#N)on2)C1=O` [D8]: 4.
Still for that read-out and setting: the same measure for `COC1=C(C)CN(c2noc(C(C)C)c2C#N)C1=O` [D10]: 5.

Still in this data set, the particulars now being: Setaria faberi, rate 1000 g/Ha, scale 0-5.
Consider `CCC(C)(C)c1onc(N2C(=O)C(OC)=C(C)C2O)c1C#N` (centres unmarked) [D5], for which the “SETFA (Setaria faberi) damage score, application post-emergence” value stood at 5.
Take `CCOC1=C(C)C(O)N(c2cc(C(C)(C)C#N)on2)C1=O` (centres unmarked) [D6]: the “SETFA (Setaria faberi) damage score, application post-emergence” value is given as 5.
On the same count and under the same terms, next, `COC1=C(C)C(OC(C)=O)N(c2cc(C(C)(C)C)on2)C1=O` (centres unmarked) [D7]: 5; `CCOC1=C(C)CN(c2cc(C(C)(C)C#N)on2)C1=O` [D8]: 3; `COC1=C(C)CN(c2noc(C(C)C)c2C#N)C1=O` [D10]: 5.

Still in this data set, the particulars now being: Zea mays, rate 1000 g/Ha, scale 0-5.
In the case of `CCC(C)(C)c1onc(N2C(=O)C(OC)=C(C)C2O)c1C#N` (centres unmarked) [D5], the “ZEAMX (Zea mays) damage score, application post-emergence” value is listed as 5.
The same measure, in the same setting: the same measure for `CCOC1=C(C)C(O)N(c2cc(C(C)(C)C#N)on2)C1=O` (centres unmarked) [D6]: 2.
On the same count and under the same terms, next, `COC1=C(C)C(OC(C)=O)N(c2cc(C(C)(C)C)on2)C1=O` (centres unmarked) [D7]: 3; `CCOC1=C(C)CN(c2cc(C(C)(C)C#N)on2)C1=O` [D8]: 0.
Same read-out and setting: the same measure for `COC1=C(C)CN(c2noc(C(C)C)c2C#N)C1=O` [D10]: 2.

The next data set has as its system a variety of test species. Briefly: Pre-emergence herbicidal activity (glasshouse, sprayed one day after sowing, evaluated after 13 days). Also on record: key: 5=total damage to plant; 0=no damage to plant. The following applies: ABUTH, application pre-emergence, rate 1000 g/Ha, scale 0-5. In kind it is in vivo. Summed up:
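Seeds sown in standard soil in pots, held one day in glasshouse (24/16 °C day/night, 14 h light, 65% humidity), then sprayed with aqueous solution of compound formulated in acetone/water 50:50 with 0.5% Tween 20. Grown on under same conditions, watered twice daily; damage scored after 13 days (0 = none, 5 = total).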
In the case of `CCC(C)(C)c1onc(N2C(=O)C(OC)=C(C)C2O)c1C#N` (centres unmarked) [D5], the “Pre-emergence herbicidal damage score, ABUTH” value is listed as 5.
Same read-out and setting: next, `CCOC1=C(C)C(O)N(c2cc(C(C)(C)C#N)on2)C1=O` (centres unmarked) [D6]: 5; `COC1=C(C)C(OC(C)=O)N(c2cc(C(C)(C)C)on2)C1=O` (centres unmarked) [D7]: 5.
Still for that read-out and setting: next, `CCOC1=C(C)CN(c2cc(C(C)(C)C#N)on2)C1=O` [D8]: 3; `COC1=C(C)CN(c2noc(C(C)C)c2C#N)C1=O` [D10]: 4.

The same data set, now with this note: ALOMY, application pre-emergence, rate 1000 g/Ha, scale 0-5.
On to `CCC(C)(C)c1onc(N2C(=O)C(OC)=C(C)C2O)c1C#N` (centres unmarked) [D5], for which the “Pre-emergence herbicidal damage score, ALOMY” value is 4.
Same read-out and setting: the same measure for `CCOC1=C(C)C(O)N(c2cc(C(C)(C)C#N)on2)C1=O` (centres unmarked) [D6]: 4; for `COC1=C(C)C(OC(C)=O)N(c2cc(C(C)(C)C)on2)C1=O` (centres unmarked) [D7]: 3.
On the same count and under the same terms, next, `CCOC1=C(C)CN(c2cc(C(C)(C)C#N)on2)C1=O` [D8]: 2; `COC1=C(C)CN(c2noc(C(C)C)c2C#N)C1=O` [D10]: 3.

Staying with this data set, now noted: AMARE, application pre-emergence, rate 1000 g/Ha, scale 0-5.
In the case of `CCC(C)(C)c1onc(N2C(=O)C(OC)=C(C)C2O)c1C#N` (centres unmarked) [D5], the “Pre-emergence herbicidal damage score, AMARE” value amounted to 5.
Still for that read-out and setting: next, `CCOC1=C(C)C(O)N(c2cc(C(C)(C)C#N)on2)C1=O` (centres unmarked) [D6]: 5; `COC1=C(C)C(OC(C)=O)N(c2cc(C(C)(C)C)on2)C1=O` (centres unmarked) [D7]: 5; `CCOC1=C(C)CN(c2cc(C(C)(C)C#N)on2)C1=O` [D8]: 4.
On the same count and under the same terms, next, `COC1=C(C)CN(c2noc(C(C)C)c2C#N)C1=O` [D10]: 5.

The same data set, now with this note: ECHCG, application pre-emergence, rate 1000 g/Ha, scale 0-5.
In the case of `CCC(C)(C)c1onc(N2C(=O)C(OC)=C(C)C2O)c1C#N` (centres unmarked) [D5], the “Pre-emergence herbicidal damage score, ECHCG” value was found to be 5.
On the same count and under the same terms, the same measure for `CCOC1=C(C)C(O)N(c2cc(C(C)(C)C#N)on2)C1=O` (centres unmarked) [D6]: 5.
In the case of `COC1=C(C)C(OC(C)=O)N(c2cc(C(C)(C)C)on2)C1=O` (centres unmarked) [D7], the “Pre-emergence herbicidal damage score, ECHCG” value was found to be 4.
As for `CCOC1=C(C)CN(c2cc(C(C)(C)C#N)on2)C1=O` [D8], the “Pre-emergence herbicidal damage score, ECHCG” value was 3.
Still for that read-out and setting: the same measure for `COC1=C(C)CN(c2noc(C(C)C)c2C#N)C1=O` [D10]: 5.

Staying with this data set, now noted: SETFA, application pre-emergence, rate 1000 g/Ha, scale 0-5.
Turning to `CCC(C)(C)c1onc(N2C(=O)C(OC)=C(C)C2O)c1C#N` (centres unmarked) [D5], the “Pre-emergence herbicidal damage score, SETFA” value is 5.
Still for that read-out and setting: the same measure for `CCOC1=C(C)C(O)N(c2cc(C(C)(C)C#N)on2)C1=O` (centres unmarked) [D6]: 4; for `COC1=C(C)C(OC(C)=O)N(c2cc(C(C)(C)C)on2)C1=O` (centres unmarked) [D7]: 5; for `CCOC1=C(C)CN(c2cc(C(C)(C)C#N)on2)C1=O` [D8]: 4.
`COC1=C(C)CN(c2noc(C(C)C)c2C#N)C1=O` [D10]: the “Pre-emergence herbicidal damage score, SETFA” value is given as 5.

The same data set, now with this note: ZEAMX, application pre-emergence, rate 1000 g/Ha, scale 0-5.
Regarding `CCC(C)(C)c1onc(N2C(=O)C(OC)=C(C)C2O)c1C#N` (centres unmarked) [D5], the “Pre-emergence herbicidal damage score, ZEAMX” value is on record as 2.
On the same count and under the same terms, next, `CCOC1=C(C)C(O)N(c2cc(C(C)(C)C#N)on2)C1=O` (centres unmarked) [D6]: 3; `COC1=C(C)C(OC(C)=O)N(c2cc(C(C)(C)C)on2)C1=O` (centres unmarked) [D7]: 2; `CCOC1=C(C)CN(c2cc(C(C)(C)C#N)on2)C1=O` [D8]: 2.
On to `COC1=C(C)CN(c2noc(C(C)C)c2C#N)C1=O` [D10], for which the “Pre-emergence herbicidal damage score, ZEAMX” value came to 2.

System in a further data set: not given
Assay: not given
Conditions: not given
Compound `CCC(C)(C)c1onc(N2C(=O)C(OC)=C(C)C2O)c1C#N` (centres unmarked) [D5] gave a melting point of 79 to 81 °C.
The same measure, in the same setting: next, `CCOC1=C(C)C(O)N(c2cc(C(C)(C)C#N)on2)C1=O` (centres unmarked) [D6]: 90 to 92 °C; `COC1=C(C)C(OC(C)=O)N(c2cc(C(C)(C)C)on2)C1=O` (centres unmarked) [D7]: 118 to 124 °C; `CCOC1=C(C)CN(c2cc(C(C)(C)C#N)on2)C1=O` [D8]: 127 to 129 °C.
Still for that read-out and setting: next, `COC1=C(C)CN(c2noc(C(C)C)c2C#N)C1=O` [D10]: 131 to 133 °C.

What is called melting point is the temperature, or range, at which the solid turns liquid.
